The test system of data set [1] is Mus musculus. Description: Antiinflammatory activity in male C57BL/6 mouse model of DSS-induced ulcerative colitis assessed as reversal of invisible pulp structure at 10 to 20 mg/kg, po administered for 11 days with subsequent administration of DSS for 8 days by H and E staining based analysis. The note with it: dose 10-20 mg/kg, time 11.0 day. It is filed as functional, organism-based.

Data set [2] concerns RAW264.7. Description: Inhibition of NFkappaB signaling pathway in LPS-induced mouse RAW264.7 cells assessed as inhibition of p65 phosphorylation by Western blot analysis. It is filed as cell-based. The note with it: dose 2.5-10 µM.
The test system of data set [3] is Mus musculus. Description: Anti-colitis activity in male C57BL/6 mouse model of DSS-induced ulcerative colitis assessed as colon length at 10 mg/kg, po administered for 11 days with subsequent administration of DSS for 8 days (reference value: 5.2 cm). It is filed as functional. Particulars: time 11 day.
Data set [4] deals with Mus musculus. Description: Antiinflammatory activity in LPS induced C57BL/6 mouse model of acute lung injury assessed as inhibition of IL-6 release in serum at 20 to 40 mg/kg, ip preadministered for 30 mins followed by LPS administration and measured after 6 hrs by ELISA. In kind it is functional, organism-based. Particulars: dose 20-40 mg/kg, time 6.5 hrs.
Data set [5] has as its target Interleukin-1 receptor-associated kinase 1 (Homo sapiens, UniProt P51617). Description: Inhibition of IRAK1 (unknown origin) at 10 uM relative to control.
Data set [6] deals with Mus musculus. Description: Antiinflammatory activity in LPS induced C57BL/6 mouse model of acute lung injury assessed as reduction in spleen over activation at 20 to 40 mg/kg, ip preadministered for 30 mins followed by LPS administration and measured after 6 hrs by H and E staining based analysis. It is filed as functional, organism-based. The note with it: dose 20-40 mg/kg, time 6.5 hrs.

For data set [7], the system named is RAW264.7. Description: Inhibition of NFkappaB signaling pathway in LPS-induced mouse RAW264.7 cells assessed as inhibition of p65 entry into nucleus pretreated for 2 hrs followed by LPS stimulation and measured after 15 mins by immunofluorescence staining based analysis. Particulars: time 135.0 min. It is filed as cell-based.
Data set [8] relates to RAW264.7. Description: Inhibition of NFkappaB/MAPK signaling pathway in mouse RAW264.7 cells assessed as reduction in LPS-induced IkappaBalpha degradation at 50 uM by Western blot analysis. It is filed as cell-based. Background: Immunoblotting shows a protein as a band on a membrane.
A short description of data set [9]: Clearance in male Sprague-Dawley rat at 1 mg/kg, iv administered via tail vein and measured upto 24 hrs. It is filed as ADME, organism-based. The note with it: in vivo.
Data set [10] deals with Mus musculus. Description: Antiinflammatory activity in LPS induced C57BL/6 mouse model of acute lung injury assessed as reduction in white pulp fusion at 20 to 40 mg/kg, ip preadministered for 30 mins followed by LPS administration and measured after 6 hrs by H and E staining based analysis. It is filed as functional, organism-based. Particulars: dose 20-40 mg/kg, time 6.5 hrs.

Data set [11] deals with T1, Interleukin-1 receptor-associated kinase 4 (Mus musculus) (UniProt Q8R4K2).
T1 sequence (whole entry): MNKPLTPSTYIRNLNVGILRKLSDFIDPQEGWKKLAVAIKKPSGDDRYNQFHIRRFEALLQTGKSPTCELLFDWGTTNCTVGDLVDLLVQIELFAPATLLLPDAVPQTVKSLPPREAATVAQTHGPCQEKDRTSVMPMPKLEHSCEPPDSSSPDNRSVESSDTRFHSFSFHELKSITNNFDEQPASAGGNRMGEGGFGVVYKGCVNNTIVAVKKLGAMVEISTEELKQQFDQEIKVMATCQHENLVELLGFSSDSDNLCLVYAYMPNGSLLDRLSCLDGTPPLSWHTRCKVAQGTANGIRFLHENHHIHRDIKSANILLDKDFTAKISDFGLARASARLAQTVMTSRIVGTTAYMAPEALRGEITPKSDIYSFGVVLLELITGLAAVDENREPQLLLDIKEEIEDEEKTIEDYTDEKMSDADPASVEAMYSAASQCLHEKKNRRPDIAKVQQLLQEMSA
Description: Thermal stabilization of IRAK4 in mouse RAW264.7 cells at 10 uM measured after 4 hrs by CETSA. In kind it is cell-based.

Data set [12] is described as follows: Stability of compound in simulated intestinal fluid at 10 mg/ml incubated for 8 hrs and measured every 2 hrs hy HPLC analysis. It is filed as ADME. Particulars: simulated gi fluid.

SMILES strings stand for the structures. Calls of active or inactive are those of the source. The calls are words filed in the database; no cut-off is given here.

We go through one compound from ChEMBL document CHEMBL5523725, “Fragment-Based Anti-inflammatory Agent Design and Target Identification: Discovery of AF-45 as an IRAK4 Inhibitor to Treat Ulcerative Colitis and Acute Lung Injury” (J Med Chem, 2024).

Sequence of Interleukin-1 receptor-associated kinase 1 (P51617 whole entry, looked up): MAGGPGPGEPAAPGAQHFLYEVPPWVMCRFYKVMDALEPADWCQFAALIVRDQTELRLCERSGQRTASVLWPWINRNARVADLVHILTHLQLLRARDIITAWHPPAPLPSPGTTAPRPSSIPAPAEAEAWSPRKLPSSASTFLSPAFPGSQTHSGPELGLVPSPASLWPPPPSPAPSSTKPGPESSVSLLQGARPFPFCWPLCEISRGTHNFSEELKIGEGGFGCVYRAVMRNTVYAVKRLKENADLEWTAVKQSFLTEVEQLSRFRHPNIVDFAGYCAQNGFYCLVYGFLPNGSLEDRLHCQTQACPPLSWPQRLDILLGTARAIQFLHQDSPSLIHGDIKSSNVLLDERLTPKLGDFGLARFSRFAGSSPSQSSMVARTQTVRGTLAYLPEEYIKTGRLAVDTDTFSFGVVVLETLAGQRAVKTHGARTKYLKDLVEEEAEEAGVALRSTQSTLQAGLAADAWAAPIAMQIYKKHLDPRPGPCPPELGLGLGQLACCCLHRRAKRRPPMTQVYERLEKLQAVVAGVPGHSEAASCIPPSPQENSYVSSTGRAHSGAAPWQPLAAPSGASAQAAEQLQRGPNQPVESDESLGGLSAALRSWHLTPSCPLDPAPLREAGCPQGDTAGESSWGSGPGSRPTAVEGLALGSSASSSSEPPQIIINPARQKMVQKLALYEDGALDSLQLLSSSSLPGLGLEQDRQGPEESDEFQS

In the case of `COc1cc2c(O[C@H]3CC[C@@H](N)CC3)ncnc2cc1OCc1ccccc1`, the result (in the data set with Mus musculus [1]; in the data set on Mus musculus [4]; in the data set with Mus musculus [6]; in the data set on Mus musculus [10]; in data set [11]) was Active. The values for the inhibition result (in the data set on RAW264.7 [2]; in data set [5]) were “Dose-Dependent Effect” and 87%, respectively. Also, the Activity in the data set on Mus musculus [3] stood at 5.9 cm. The inhibition result with RAW264.7 [7] and in the data set on RAW264.7 [8] was “Active” throughout. Further, in data set [9], the clearance was 0.23 L/h/kg. The Stability result in data set [12] was “Stable”.

For orientation: inhibition means the drop in the measured response relative to a control, in per cent. A word on the clearance: it is the volume of plasma or blood freed of the substance per unit of time. A higher clearance goes with efficient removal.
